The text below walks through data of patent publication US10150760B2, “Compounds for use in preparing heterocyclic triazole agonists of the APJ receptor” (AMGEN INC., priority 2016, dated 2018).

Chain of human APJ receptor (P35414 whole entry): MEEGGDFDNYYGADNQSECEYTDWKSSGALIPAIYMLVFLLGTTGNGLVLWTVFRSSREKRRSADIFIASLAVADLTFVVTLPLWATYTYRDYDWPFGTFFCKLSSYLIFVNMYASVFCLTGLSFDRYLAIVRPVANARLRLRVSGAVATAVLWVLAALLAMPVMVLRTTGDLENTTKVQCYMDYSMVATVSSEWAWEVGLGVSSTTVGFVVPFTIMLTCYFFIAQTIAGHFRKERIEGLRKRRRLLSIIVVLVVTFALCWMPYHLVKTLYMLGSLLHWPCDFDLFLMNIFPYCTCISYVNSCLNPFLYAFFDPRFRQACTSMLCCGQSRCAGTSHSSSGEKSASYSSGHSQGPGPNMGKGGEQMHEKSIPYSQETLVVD

The test addresses human APJ receptor (Homo sapiens (Human), UniProt P35414). Put plainly: [35S]GTPγS binding assay on membranes from CHO cells stably expressing human APJ receptor. It is filed as biochemical. As to conditions: read-out: Activity hAPJ SPA EC50 IP. Put shortly: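 Agonist-driven [35S]GTPγS (0.2 nM) binding was measured over 90 min at room temperature on human APJ-expressing CHO membranes with bead capture, in buffer containing 3 μM GDP, 200 mM NaCl and 5 mM MgCl2 (pH 7.5). Excess unlabelled GTPγS (100 μM) gave nonspecific signal; EC50 from non-linear fits.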
The EC50 is the concentration needed to bring the measured effect to its halfway point. For `COc1cccc(OC)c1-n1c(NS(=O)(=O)[C@@H](C)[C@@H](OC(C)C)c2ncc(C)cn2)nnc1[C@H]1CCCO1` (single isomer, unassigned) [Example 98.0, (1S,2S)-N-(4-(2,6-dimethoxyphenyl)-5-((S)-tetrahydrofuran-2-yl)-4H-1,2,4-triazol-3-yl)-1-isopropoxy-1-(5-methylpyrimidin-2-yl)propane-2-sulfonamide or (1S,2S)-N-(4-(2,6-dimethoxyphenyl)-5-((R)-tetrahydrofuran-2-yl)-4H-1,2,4-triazol-3-yl)-1-isopropoxy-1-(5-methylpyrimidin-2-yl)propane-2-sulfonamide], the EC50 turned out to be 0.78 nM.
Regarding `COc1cccc(OC)c1-n1c(NS(=O)(=O)[C@@H](C)[C@@H](OC(C)C)c2ncc(C)cn2)nnc1[C@H]1CCOC1` (single isomer, unassigned) [Example 99.0, (1S,2S)-N-(4-(2,6-dimethoxyphenyl)-5-((R)-tetrahydrofuran-3-yl)-4H-1,2,4-triazol-3-yl)-1-isopropoxy-1-(5-methylpyrimidin-2-yl)propane-2-sulfonamide or (1S,2S)-N-(4-(2,6-dimethoxyphenyl)-5-((S)-tetrahydrofuran-3-yl)-4H-1,2,4-triazol-3-yl)-1-isopropoxy-1-(5-methylpyrimidin-2-yl)propane-2-sulfonamide], the EC50 was 2.5 nM.
Turning to `COc1cccc(OC)c1-n1c(NS(=O)(=O)[C@@H](C)[C@@H](OC(C)C)c2ncc(C)cn2)nnc1[C@H]1CCOC1` (single isomer, unassigned) [Example 100.0, (1S,2S)-N-(4-(2,6-dimethoxyphenyl)-5-((R)-tetrahydrofuran-3-yl)-4H-1,2,4-triazol-3-yl)-1-isopropoxy-1-(5-methylpyrimidin-2-yl)propane-2-sulfonamide or (1S,2S)-N-(4-(2,6-dimethoxyphenyl)-5-((S)-tetrahydrofuran-3-yl)-4H-1,2,4-triazol-3-yl)-1-isopropoxy-1-(5-methylpyrimidin-2-yl)propane-2-sulfonamide], the EC50 is 24 nM.
The same measure for `COc1ncnc(OC)c1-n1c(NS(=O)(=O)[C@@H](C)[C@H](C)c2ncc(Cl)cn2)nnc1[C@H]1CCCOC1` (single isomer, unassigned) [Example 101.0, (2S,3R)-3-(5-chloropyrimidin-2-yl)-N-(4-(4,6-dimethoxypyrimidin-5-yl)-5-((S)-tetrahydro-2H-pyran-3-yl)-4H-1,2,4-triazol-3-yl)butane-2-sulfonamide or (2S,3R)-3-(5-chloropyrimidin-2-yl)-N-(4-(4,6-dimethoxypyrimidin-5-yl)-5-((R)-tetrahydro-2H-pyran-3-yl)-4H-1,2,4-triazol-3-yl)butane-2-sulfonamide]: 260 nM; for `COc1ncnc(OC)c1-n1c(NS(=O)(=O)[C@@H](C)[C@H](C)c2cnc(C)cn2)nnc1[C@H]1CCCO1` (single isomer, unassigned) [Example 104.0, (2S,3R)-N-(4-(4,6-dimethoxypyrimidin-5-yl)-5-((S)-tetrahydrofuran-2-yl)-4H-1,2,4-triazol-3-yl)-3-(5-methylpyrazin-2-yl)butane-2-sulfonamide or (2S,3R)-N-(4-(4,6-dimethoxypyrimidin-5-yl)-5-((R)-tetrahydrofuran-2-yl)-4H-1,2,4-triazol-3-yl)-3-(5-methylpyrazin-2-yl)butane-2-sulfonamide]: 330 nM; for `COc1ncnc(OC)c1-n1c(NS(=O)(=O)[C@@H](C)[C@H](C)c2cnc(C)cn2)nnc1[C@H]1CCCO1` (single isomer, unassigned) [Example 105.0, (2S,3R)-N-(4-(4,6-dimethoxypyrimidin-5-yl)-5-((S)-tetrahydrofuran-2-yl)-4H-1,2,4-triazol-3-yl)-3-(5-methylpyrazin-2-yl)butane-2-sulfonamide or (2S,3R)-N-(4-(4,6-dimethoxypyrimidin-5-yl)-5-((R)-tetrahydrofuran-2-yl)-4H-1,2,4-triazol-3-yl)-3-(5-methylpyrazin-2-yl)butane-2-sulfonamide]: 88 nM.
`COc1cccc(OC)c1-n1c(NS(=O)(=O)[C@@H](C)[C@H](C)c2cnc(C)cn2)nnc1[C@H]1CCCCO1` (single isomer, unassigned) [Example 106.0, (2S,3R)-N-(4-(2,6-dimethoxyphenyl)-5-((S)-tetrahydro-2H-pyran-2-yl)-4H-1,2,4-triazol-3-yl)-3-(5-methylpyrazin-2-yl)butane-2-sulfonamide or (2S,3R)-N-(4-(2,6-dimethoxyphenyl)-5-((R)-tetrahydro-2H-pyran-2-yl)-4H-1,2,4-triazol-3-yl)-3-(5-methylpyrazin-2-yl)butane-2-sulfonamide]: the EC50 worked out at 53 nM.
`COc1cccc(OC)c1-n1c(NS(=O)(=O)[C@@H](C)[C@H](C)c2cnc(C)cn2)nnc1[C@H]1CCCCO1` (single isomer, unassigned) [Example 107.0, (2S,3R)-N-(4-(2,6-dimethoxyphenyl)-5-((S)-tetrahydro-2H-pyran-2-yl)-4H-1,2,4-triazol-3-yl)-3-(5-methylpyrazin-2-yl)butane-2-sulfonamide or (2S,3R)-N-(4-(2,6-dimethoxyphenyl)-5-((R)-tetrahydro-2H-pyran-2-yl)-4H-1,2,4-triazol-3-yl)-3-(5-methylpyrazin-2-yl)butane-2-sulfonamide]: the EC50 was 5.1 nM.
Then `COc1cccc(OC)c1-n1c(NS(=O)(=O)[C@@H](C)[C@H](OC)c2ncc(Cl)cn2)nnc1[C@H]1CCC(C)(C)O1` (single isomer, unassigned) [Example 108.0, (1R,2S)-1-(5-chloropyrimidin-2-yl)-N-(4-(2,6-dimethoxyphenyl)-5-((S)-5,5-dimethyltetrahydrofuran-2-yl)-4H-1,2,4-triazol-3-yl)-1-methoxypropane-2-sulfonamide or (1R,2S)-1-(5-chloropyrimidin-2-yl)-N-(4-(2,6-dimethoxyphenyl)-5-((R)-5,5-dimethyltetrahydrofuran-2-yl)-4H-1,2,4-triazol-3-yl)-1-methoxypropane-2-sulfonamide], with 25 nM; and `COc1cccc(OC)c1-n1c(NS(=O)(=O)[C@@H](C)[C@H](OC)c2ncc(Cl)cn2)nnc1[C@H]1CCC(C)(C)O1` (single isomer, unassigned) [Example 109.0, (1R,2S)-1-(5-chloropyrimidin-2-yl)-N-(4-(2,6-dimethoxyphenyl)-5-((S)-5,5-dimethyltetrahydrofuran-2-yl)-4H-1,2,4-triazol-3-yl)-1-methoxypropane-2-sulfonamide or (1R,2S)-1-(5-chloropyrimidin-2-yl)-N-(4-(2,6-dimethoxyphenyl)-5-((R)-5,5-dimethyltetrahydrofuran-2-yl)-4H-1,2,4-triazol-3-yl)-1-methoxypropane-2-sulfonamide], with 0.16 nM; and `CO[C@H](c1ncc(Cl)cn1)[C@H](C)S(=O)(=O)Nc1nnc([C@H]2CCCO2)n1C1(C)CC1` (single isomer, unassigned) [Example 110.0, (1R,2S)-1-(5-chloropyrimidin-2-yl)-1-methoxy-N-(4-(1-methylcyclopropyl)-5-((S)-tetrahydrofuran-2-yl)-4H-1,2,4-triazol-3-yl)propane-2-sulfonamide or (1R,2S)-1-(5-chloropyrimidin-2-yl)-1-methoxy-N-(4-(1-methylcyclopropyl)-5-((R)-tetrahydrofuran-2-yl)-4H-1,2,4-triazol-3-yl)propane-2-sulfonamide], with 30 nM.
On to `CO[C@H](c1ncc(Cl)cn1)[C@H](C)S(=O)(=O)Nc1nnc([C@H]2CCCO2)n1C1(C)CC1` (single isomer, unassigned) [Example 111.0, (1R,2S)-1-(5-chloropyrimidin-2-yl)-1-methoxy-N-(4-(1-methylcyclopropyl)-5-((S)-tetrahydrofuran-2-yl)-4H-1,2,4-triazol-3-yl)propane-2-sulfonamide or (1R,2S)-1-(5-chloropyrimidin-2-yl)-1-methoxy-N-(4-(1-methylcyclopropyl)-5-((R)-tetrahydrofuran-2-yl)-4H-1,2,4-triazol-3-yl)propane-2-sulfonamide], for which the EC50 stood at 240 nM.
The same measure for `CO[C@H](c1ncc(Cl)cn1)[C@H](C)S(=O)(=O)Nc1nnc([C@H]2CCCCO2)n1C1(C)CC1` (single isomer, unassigned) [Example 113.0, (1R,2S)-1-(5-chloropyrimidin-2-yl)-1-methoxy-N-(4-(1-methylcyclopropyl)-5-((S)-tetrahydro-2H-pyran-2-yl)-4H-1,2,4-triazol-3-yl)propane-2-sulfonamide or (1R,2S)-1-(5-chloropyrimidin-2-yl)-1-methoxy-N-(4-(1-methylcyclopropyl)-5-((R)-tetrahydro-2H-pyran-2-yl)-4H-1,2,4-triazol-3-yl)propane-2-sulfonamide]: 260 nM.
As for `COc1cccc(OC)c1-n1c(NS(=O)(=O)[C@@H](C)[C@H](OC)c2ncc(Cl)cn2)nnc1[C@H]1CCO[C@@H]1C` (single isomer, unassigned) [Example 114.0, (1R,2S)-1-(5-chloropyrimidin-2-yl)-N-(4-(2,6-dimethoxyphenyl)-5-((2R,3R)-2-methyltetrahydrofuran-3-yl)-4H-1,2,4-triazol-3-yl)-1-methoxypropane-2-sulfonamide or (1R,2S)-1-(5-chloropyrimidin-2-yl)-N-(4-(2,6-dimethoxyphenyl)-5-((2S,3S)-2-methyltetrahydrofuran-3-yl)-4H-1,2,4-triazol-3-yl)-1-methoxypropane-2-sulfonamide], the EC50 was 110 nM.
The same measure for `COc1cccc(OC)c1-n1c(NS(=O)(=O)[C@@H](C)[C@H](OC)c2ncc(Cl)cn2)nnc1[C@H]1CCO[C@@H]1C` (single isomer, unassigned) [Example 115.0, (1R,2S)-1-(5-chloropyrimidin-2-yl)-N-(4-(2,6-dimethoxyphenyl)-5-((2R,3S)-2-methyltetrahydrofuran-3-yl)-4H-1,2,4-triazol-3-yl)-1-methoxypropane-2-sulfonamide or (1R,2S)-1-(5-chloropyrimidin-2-yl)-N-(4-(2,6-dimethoxyphenyl)-5-((2S,3R)-2-methyltetrahydrofuran-3-yl)-4H-1,2,4-triazol-3-yl)-1-methoxypropane-2-sulfonamide]: 210 nM.
